In US20220354849A1, “COMPOSITION FOR PREVENTING OR TREATING METABOLIC LIVER DISEASE” (STANDIGM INC., priority 2019, published 2022):
“And” between values parts separate entries of the source, which are not always exact repeats. Equal values may be shown once.

How the values were obtained:
[1] = tested on: NASH model mice; test: NASH model mice (STZ + high-fat diet), intraperitoneal trametinib study: liver histology, NAFLD activity score, fibrosis area, liver weight; type: in vivo, mouse (C57BL/6); set-up: key to NAFLD activity score (NAS): NAS: sum of steatosis, inflammation, ballooning scores (Kleiner criteria); key to steatosis score / ballooning score: severity score per Kleiner's criteria on H&E sections; fibrosis area score (sirius red-positive area): unit not given here; settings: for fibrosis area score (sirius red-positive area) / NAFLD activity score (NAS): telmisartan 10 mg/kg p.o., once daily 6 to 9 weeks of age; for fibrosis area score (sirius red-positive area): vehicle 0.89±0.19; for NAFLD activity score (NAS): vehicle 4.38±0.52
Description: (§1) Pathogen-free C57BL/6 mice on the 14th day of pregnancy were obtained from Japan SLC, Inc. (Japan).
(§2) NASH was established in male mice by a single subcutaneous injection of […] streptozotocin (STZ, Sigma, USA) 2 days after birth and feeding with a high-fat diet (CLEA Japan Inc., Japan) ad libitum after 4 weeks of age (day 28±2).
On the day before the start of administration based on the body weight of mice, the NASH mice at 6 weeks of age (day 42±2) prepared in Example 1 were randomly divided into 3 groups of 8 mice.
The present inventors selected trametinib as a substance expected to have a therapeutic effect on non-alcoholic steatohepatitis through a screening method using artificial intelligence (AI) deep learning technology. In order to identify whether the substance has an effect on non-alcoholic steatohepatitis, the 3 groups of mice were each intraperitoneally or orally administered with the following compounds at an amount of about […]. As the negative control group of trametinib in the present invention, the vehicle administration group was treated with a solvent of the same amount used for compound dissolution. Telmisartan (Boehringer Ingelheim GmbH, Germany) was used in the positive control group. The telmisartan is a compound which has anti-NASH, anti-fibrosis, and anti-inflammatory effects in NASH and in a liver disease animal model related to NASH.
Group 1 (vehicle administration group: negative control group): 8 NASH mice were intraperitoneally administered with a vehicle (4% DMSO in saline) in a volume of 5 mL/kg once daily from 6 weeks to 9 weeks of age.
Group 2 (telmisartan administration group: positive control group): 8 NASH mice were orally administered with purified water supplemented with telmisartan at a dose of 10 mg/kg once daily from 6 weeks to 9 weeks of age.
Group 3 (trametinib administration group: experimental group): 8 NASH mice were intraperitoneally administered with a vehicle supplemented with trametinib at a dose of 2 mg/kg once daily from 6 weeks to 9 weeks of age.
(§3) The body weight of each mouse was measured daily during the administration period, and the survival rate, clinical symptoms, and behaviors of each mouse were monitored daily.
For histological analysis of liver tissue, mice in Groups 1 to 3 were sacrificed at 9 weeks of age, and the liver was excised therefrom.
For H&E staining, after sectioning liver tissue, a liver tissue slide fixed with paraffin was immersed in a xylene solution for 3 minutes to remove the paraffin. Thereafter, in order to remove the xylene, the liver tissue slide was immersed in 100% ethanol for 3 minutes and then hydrated with distilled water. Subsequently, the liver tissue slide was immersed in a hematoxylin solution for 5 to 10 minutes and then hydrated with distilled water for 5 minutes, followed by quickly immersing it twice in a 1% HCl solution, and then hydrating with distilled water. Then, the liver tissue slide was immersed in a 1% ammonia solution for 2 minutes to stain the tissue blue. Thereafter, the liver tissue stained blue was immersed in an eosin solution for 2 minutes, followed by immersing the resultant in ethanol for about 3 to 5 minutes. Lastly, the liver tissue was immersed in a xylene solution, whereupon the thus-stained liver fragment was observed under a microscope.
The NAFLD activity score (NAS) is a combined value obtained by considering each condition of steatosis, inflammation, and ballooning, which are observed in a liver section stained with H&E. The NAFLD score was calculated according to Kleiner's criteria (Kleiner DE et al., 2005).
Steatosis, inflammation, and ballooning scores were determined according to severity of symptoms based on observation in H&E-stained liver sections.
For sirius red staining, a sirius red reagent was maintained in an equilibrium state and stirred gently. […]

[2] = tested on: NASH model mice; test: NASH model mice (STZ + high-fat diet), oral trametinib study: liver histology, NAFLD activity score, fibrosis area, liver weight; type: in vivo, mouse (C57BL/6); set-up: fibrosis area score (sirius red-positive area): unit not given here; settings: for fibrosis area score (sirius red-positive area) / NAFLD activity score (NAS): telmisartan 10 mg/kg p.o., once daily 6 to 9 weeks of age; for fibrosis area score (sirius red-positive area): vehicle 0.69±0.13; for NAFLD activity score (NAS): vehicle 4.29±0.49
Description: as §1, §2
In order to determine a safe oral administration dose of trametinib, as in Example 2, the NASH mice in Example 1 were randomly divided into 3 groups of 7 or 8 mice.Thereafter, the mice of 3 groups were orally administered with the following compounds at about […].
Group 1 (vehicle administration group:negative control group): 7 NASH mice were orally administered with a vehicle (1% DMSO in saline) in a volume of 10 mL/kg once daily from 6 weeks to 9 weeks of age.
Group 2 (telmisartan administration group:positive control group): 8 NASH mice were orally administered with purified water supplemented with telmisartan at a dose of 10 mg/kg (in a volume of 10 mL/kg) once daily from 6 weeks to 9 weeks of age.
Group 3 (trametinib administration group:experimental group): 8 NASH mice were orally administered with a vehicle supplemented with trametinib at a dose of 0.2 mg/kg (in a volume of 10 mL/kg) once daily from 6 weeks to 9 weeks of age.
as §3
For histological analysis of liver tissue, mice in Groups 1 to 3 of Example 5 were sacrificed at 9 weeks of age, and then H&E staining, NAFLD activity score measurement, and sirius red staining were performed according to the method of Example 3.
The NAFLD activity score for liver tissue was estimated according to the method of Example 3-2.
According to the method of Example 3-4, a percentage of a fibrosis area due to inflammation and a value of a sirius red-positive area were each estimated through sirius red staining.
Statistical analysis of the data of the Examples above was performed using the Bonferroni Multiple Comparison Test. p<0.05 was regarded as statistically significant.

[3] = trametinib 2 mg/kg i.p. once daily, 6 to 9 weeks of age
[4] = trametinib 0.2 mg/kg p.o. once daily, 6 to 9 weeks of age

CCCc1nc2c(C)cc(-c3nc4ccccc4n3C)cc2n1Cc1ccc(-c2ccccc2C(=O)O)cc1 [telmisartan]
number of subjects with a steatosis score of 1 ([1]; telmisartan 10 mg/kg p.o. once daily, 6 to 9 weeks of age, 8 mice, vehicle 6 subjects): 1
fibrosis area score (sirius red-positive area) ([1]; trametinib 2 mg/kg i.p.): 0.40±0.15 and 0.4
NAFLD activity score (NAS) ([1]; trametinib 2 mg/kg i.p.): 2.75±0.46
fibrosis area score (sirius red-positive area) ([2]; trametinib 0.2 mg/kg p.o.): 0.44±0.06 and 0.4
NAFLD activity score (NAS) ([2]; trametinib 0.2 mg/kg p.o.): 2.25±0.46

CC(=O)Nc1cccc(-n2c(=O)n(C3CC3)c(=O)c3c(Nc4ccc(I)cc4F)n(C)c(=O)c(C)c32)c1 [trametinib, N—(3—{3—cyclopropyl—5-[(2-fluoro-4-iodophenyl)amino]-6,8-dimethyl-2,4,7-trioxo-3 ,4,6,7-tetrahydropyrido [4,3-d]pyrimidin-1(2H)-yl}phenyl)acetamide]
steatosis score ([1]; trametinib 2 mg/kg i.p. once daily from 6 to 9 weeks of age, H&E liver sections, vehicle average 0.8): 0
fibrosis (sirius red staining) compared to vehicle administration group [1, 3]: alleviated
pathological conditions of liver tissue (H&E staining) compared to vehicle administration group [1, 3]: improved
reduction of average liver weight compared to vehicle administration group [1, 3]: 40%
subjects with a ballooning score of 0, share of total number of subjects [1, 3]: 100%
number of subjects with a ballooning score of 0 ([1]; trametinib 2 mg/kg i.p. once daily, 6 to 9 weeks of age, 8 mice): eight
ballooning score ([1]; trametinib 2 mg/kg i.p. once daily, 6 to 9 weeks of age, all subjects): 0
liver-to-body weight ratio ([1]; trametinib 2 mg/kg i.p. once daily, 6 to 9 weeks of age, vehicle 7.0±0.8%): 5.3±0.96%
average liver weight ([1]; trametinib 2 mg/kg i.p. once daily, 6 to 9 weeks of age, vehicle 1444±106 mg): 873 ± 218 mg
fibrosis area score (sirius red-positive area) ([1]; trametinib 2 mg/kg i.p.): 0.50±0.13 and 0.5
NAFLD activity score (NAS) ([1]; trametinib 2 mg/kg i.p.): 2.63±0.52
percentage of fibrosis area compared to vehicle administration group ([1]; trametinib 2 mg/kg i.p., sirius red staining, p<0.0001): remarkable decrease
pathological conditions (sirius red staining) compared to vehicle administration group [2, 4]: improved
pathological conditions of liver tissue (H&E staining) compared to vehicle administration group [2, 4]: improved
steatosis score ([2]; trametinib 0.2 mg/kg p.o. once daily, 6 to 9 weeks of age, mean ± standard deviation, vehicle 0.86±0.38): 0.38±0.52 and 0.4
inflammation score ([2]; trametinib 0.2 mg/kg p.o. once daily, 6 to 9 weeks of age, vehicle 2.71±0.49): 1.75±0.71 and 1.8
liver-to-body weight ratio ([2]; trametinib 0.2 mg/kg p.o. once daily, 6 to 9 weeks of age, vehicle 8.7±0.8%): 7.4±0.8%
average liver weight ([2]; trametinib 0.2 mg/kg p.o. once daily, 6 to 9 weeks of age, vehicle 1776±189 mg): 1466 ± 169 mg
number of subjects with a steatosis score of 1 ([2]; trametinib 0.2 mg/kg p.o. once daily, 8 mice, vehicle 6 subjects): 3
fibrosis area score (sirius red-positive area) ([2]; trametinib 0.2 mg/kg p.o.): 0.34±0.15 and 0.3
NAFLD activity score (NAS) ([2]; trametinib 0.2 mg/kg p.o.): 2.88±1.13
percentage of fibrosis area compared to vehicle administration group ([2]; trametinib 0.2 mg/kg p.o., sirius red staining): reduced
